# Test results reported in patent US20250092046A1, “TYROSINE KINASE INHIBITORS” (THE UNIVERSITY COURT OF THE UNIVERSITY OF EDINBURGH, priority 2021, published 2025).
# Tests used:
# [1] = molecular target: ABL (Homo sapiens, UniProt P00519); assay: Kinase screening assay (mobility shift, LabChip); format: biochemical; details: 0.5 micromolar compound
# Procedure: (§1) A 4× Substrate/ATP/Metal (1 […], 5 mmol/L Mg^2+) solution was prepared with buffer (20 mmol/L HEPES, 0.01% Triton X-100, 5 mmol/L DTT, pH 7.5), and a 2× kinase solution was also prepared with buffer (20 mmol/L HEPES, 0.01% Triton X-100, 1 mmol/L DTT, pH 7.5). 5 μL of 4× compound solution, 5 μL of 4× Substrate/ATP/Metal solution, and 10 μL of 2× kinase solution were mixed and incubated in a well of polypropylene 384 well microplate for 1 hour at room temperature. 70 μL of Termination Buffer (QuickScout Screening Assist MSA) was added to the well. The reaction mixture was applied to LabChip™ system, and the product and substrate peptide peaks were separated and quantitated.
# [2] = molecular target: BRK (Homo sapiens, UniProt Q13882); assay: Kinase screening assay (mobility shift, LabChip); format: biochemical; details: 0.5 micromolar compound
# Procedure: as §1
# [3] = molecular target: EGFR (Homo sapiens, UniProt P00533); assay: Kinase screening assay (mobility shift, LabChip); format: biochemical; details: 0.5 micromolar compound
# Procedure: as §1
# [4] = molecular target: FGR (Homo sapiens, UniProt P09769); assay: Kinase screening assay (mobility shift, LabChip); format: biochemical; details: 0.5 micromolar compound
# Procedure: as §1
# [5] = molecular target: FYNa (Homo sapiens, UniProt P06241); assay: Kinase screening assay (mobility shift, LabChip); format: biochemical; details: 0.5 micromolar compound
# Procedure: as §1
# [6] = molecular target: HCK (Homo sapiens, UniProt P08631); assay: Kinase screening assay (mobility shift, LabChip); format: biochemical; details: 0.5 micromolar compound
# Procedure: as §1
# [7] = molecular target: Her4 (Homo sapiens, UniProt Q15303); assay: Kinase screening assay (mobility shift, LabChip); format: biochemical; details: 0.5 micromolar compound
# Procedure: as §1
# [8] = molecular target: KDR (Homo sapiens, UniProt P35968); assay: Kinase screening assay (mobility shift, LabChip); format: biochemical; details: 0.5 micromolar compound
# Procedure: as §1
# [9] = molecular target: KIT (Homo sapiens, UniProt P10721); assay: Kinase screening assay (mobility shift, LabChip); format: biochemical; details: 0.5 micromolar compound
# Procedure: as §1
# [10] = molecular target: LCK (Homo sapiens, UniProt P06239); assay: Kinase screening assay (mobility shift, LabChip); format: biochemical; details: 0.5 micromolar compound
# Procedure: as §1
# [11] = molecular target: LYNa (Homo sapiens, UniProt P07948); assay: Kinase screening assay (mobility shift, LabChip); format: biochemical; details: 0.5 micromolar compound
# Procedure: as §1
# [12] = molecular target: PDGFR alpha (Homo sapiens, UniProt P16234); assay: Kinase screening assay (mobility shift, LabChip); format: biochemical; details: 0.5 micromolar compound
# Procedure: as §1
# [13] = molecular target: RET (Homo sapiens, UniProt P07949); assay: Kinase screening assay (mobility shift, LabChip); format: biochemical; details: 0.5 micromolar compound
# Procedure: as §1
# [14] = molecular target: SRC (Homo sapiens, UniProt P12931); assay: Kinase screening assay (mobility shift, LabChip); format: biochemical; details: 0.5 micromolar compound
# Procedure: as §1
# [15] = molecular target: YES (Homo sapiens, UniProt P07947); assay: Kinase screening assay (mobility shift, LabChip); format: biochemical; details: 0.5 micromolar compound
# Procedure: as §1
# [16] = tested on: MDA-MB-231 breast cancer cells; assay: Cell viability assay (PrestoBlue); format: cell-based; details: Homo sapiens, 120 h, 5 days treatment
# Procedure: (§2) Cells were grown in Dulbecco's Modified Eagle Medium (DMEM) or Roswell Park Memorial Institute (RPMI) medium supplemented with serum (10% fetal bovine serum) and L-glutamine (2 mM) and incubated in a Heracell 240i tissue culture incubator at 37° C. and 5% Co2.
# (§3) After 48 hours, the media was aspirated from each well and replaced with 95 μl of fresh medium. Compounds, including DMSO, were prepared at 20× in DMEM medium in a separate 96-well intermediate plate. 5 μl from the intermediate plate was then added to each well containing cells. Untreated cells were incubated with DMSO (0.1% v/v). After 5 days, PrestoBlue™ cell viability reagent (10 μl) was added to each well and the plates incubated for 60-90 min. Fluorescence emission was detected using a fluorescence plate reader (excitation 540 nm, emission 590 nm). All conditions were normalised to the untreated cells (100%) and dose-response curves were fitted using GraphPad Prism software.
# [17] = tested on: SRC and its family members; assay: Kinase screening assay, selectivity across the panel; format: biochemical; details: kinase panel of Table 1, 0.5 micromolar
# Procedure: as §1
# [18] = tested on: cancer cell lines; assay: Screening in cancer cell lines (cell viability); format: cell-based
# Procedure: as §2, §3
# SRC, sequence (P12931 whole entry): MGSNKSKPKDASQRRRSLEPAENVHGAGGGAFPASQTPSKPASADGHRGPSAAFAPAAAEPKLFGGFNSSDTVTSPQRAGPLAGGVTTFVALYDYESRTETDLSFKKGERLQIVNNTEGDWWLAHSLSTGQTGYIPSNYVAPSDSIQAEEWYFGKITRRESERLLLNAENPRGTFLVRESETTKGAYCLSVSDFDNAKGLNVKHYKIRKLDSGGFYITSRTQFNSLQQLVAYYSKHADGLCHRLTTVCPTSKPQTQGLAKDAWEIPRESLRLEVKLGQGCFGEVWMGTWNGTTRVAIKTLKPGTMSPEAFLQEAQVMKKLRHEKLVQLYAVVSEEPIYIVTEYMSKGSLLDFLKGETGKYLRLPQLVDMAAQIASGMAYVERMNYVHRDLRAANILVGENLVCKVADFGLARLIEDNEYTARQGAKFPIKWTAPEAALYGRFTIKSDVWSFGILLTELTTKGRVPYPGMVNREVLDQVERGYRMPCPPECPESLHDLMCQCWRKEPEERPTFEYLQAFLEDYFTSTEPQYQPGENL
# LCK, sequence (P06239 whole entry): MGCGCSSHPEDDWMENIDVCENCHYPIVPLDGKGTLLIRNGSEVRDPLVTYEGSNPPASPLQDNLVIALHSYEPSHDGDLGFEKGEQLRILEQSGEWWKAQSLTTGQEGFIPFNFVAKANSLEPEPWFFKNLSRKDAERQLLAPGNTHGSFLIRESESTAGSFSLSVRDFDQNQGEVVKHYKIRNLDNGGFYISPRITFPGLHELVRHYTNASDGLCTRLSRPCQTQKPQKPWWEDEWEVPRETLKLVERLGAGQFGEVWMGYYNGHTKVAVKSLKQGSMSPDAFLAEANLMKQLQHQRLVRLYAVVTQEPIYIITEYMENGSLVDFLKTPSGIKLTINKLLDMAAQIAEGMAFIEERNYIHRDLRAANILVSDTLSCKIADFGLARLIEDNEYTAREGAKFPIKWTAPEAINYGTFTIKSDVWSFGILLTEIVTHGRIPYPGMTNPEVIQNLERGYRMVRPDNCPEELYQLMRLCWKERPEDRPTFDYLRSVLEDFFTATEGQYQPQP
# EGFR, sequence (P00533 25-1210): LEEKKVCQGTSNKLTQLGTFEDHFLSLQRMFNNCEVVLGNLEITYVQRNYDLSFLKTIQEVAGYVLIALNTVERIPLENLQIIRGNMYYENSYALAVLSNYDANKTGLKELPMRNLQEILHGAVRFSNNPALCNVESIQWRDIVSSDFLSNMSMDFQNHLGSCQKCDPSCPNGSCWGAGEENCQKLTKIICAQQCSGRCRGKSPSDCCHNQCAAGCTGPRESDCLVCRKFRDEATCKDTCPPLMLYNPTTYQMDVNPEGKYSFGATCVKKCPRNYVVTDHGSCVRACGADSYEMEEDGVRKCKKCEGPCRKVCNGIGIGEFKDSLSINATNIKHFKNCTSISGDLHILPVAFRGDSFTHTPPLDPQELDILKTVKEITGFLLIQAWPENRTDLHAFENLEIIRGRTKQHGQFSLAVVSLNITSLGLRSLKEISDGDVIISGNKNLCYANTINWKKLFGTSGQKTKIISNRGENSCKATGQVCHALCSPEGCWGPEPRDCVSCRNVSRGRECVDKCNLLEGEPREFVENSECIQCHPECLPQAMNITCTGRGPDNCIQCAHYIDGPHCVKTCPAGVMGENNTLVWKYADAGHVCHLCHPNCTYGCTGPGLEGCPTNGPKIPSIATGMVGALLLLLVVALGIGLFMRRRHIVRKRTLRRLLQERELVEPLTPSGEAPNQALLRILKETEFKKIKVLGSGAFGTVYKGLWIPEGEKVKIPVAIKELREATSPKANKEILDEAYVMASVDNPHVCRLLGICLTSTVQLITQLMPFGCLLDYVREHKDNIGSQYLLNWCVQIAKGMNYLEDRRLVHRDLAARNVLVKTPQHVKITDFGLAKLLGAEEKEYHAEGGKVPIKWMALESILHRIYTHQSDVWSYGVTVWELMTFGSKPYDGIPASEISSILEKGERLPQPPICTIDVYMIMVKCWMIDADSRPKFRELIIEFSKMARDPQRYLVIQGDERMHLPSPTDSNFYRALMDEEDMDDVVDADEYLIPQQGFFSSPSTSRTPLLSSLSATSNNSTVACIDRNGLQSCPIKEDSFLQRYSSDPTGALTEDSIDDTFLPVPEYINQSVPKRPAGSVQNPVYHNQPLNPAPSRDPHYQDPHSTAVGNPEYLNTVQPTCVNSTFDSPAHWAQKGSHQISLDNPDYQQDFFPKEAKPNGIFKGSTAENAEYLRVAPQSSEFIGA
# RET, sequence (P07949 29-1114): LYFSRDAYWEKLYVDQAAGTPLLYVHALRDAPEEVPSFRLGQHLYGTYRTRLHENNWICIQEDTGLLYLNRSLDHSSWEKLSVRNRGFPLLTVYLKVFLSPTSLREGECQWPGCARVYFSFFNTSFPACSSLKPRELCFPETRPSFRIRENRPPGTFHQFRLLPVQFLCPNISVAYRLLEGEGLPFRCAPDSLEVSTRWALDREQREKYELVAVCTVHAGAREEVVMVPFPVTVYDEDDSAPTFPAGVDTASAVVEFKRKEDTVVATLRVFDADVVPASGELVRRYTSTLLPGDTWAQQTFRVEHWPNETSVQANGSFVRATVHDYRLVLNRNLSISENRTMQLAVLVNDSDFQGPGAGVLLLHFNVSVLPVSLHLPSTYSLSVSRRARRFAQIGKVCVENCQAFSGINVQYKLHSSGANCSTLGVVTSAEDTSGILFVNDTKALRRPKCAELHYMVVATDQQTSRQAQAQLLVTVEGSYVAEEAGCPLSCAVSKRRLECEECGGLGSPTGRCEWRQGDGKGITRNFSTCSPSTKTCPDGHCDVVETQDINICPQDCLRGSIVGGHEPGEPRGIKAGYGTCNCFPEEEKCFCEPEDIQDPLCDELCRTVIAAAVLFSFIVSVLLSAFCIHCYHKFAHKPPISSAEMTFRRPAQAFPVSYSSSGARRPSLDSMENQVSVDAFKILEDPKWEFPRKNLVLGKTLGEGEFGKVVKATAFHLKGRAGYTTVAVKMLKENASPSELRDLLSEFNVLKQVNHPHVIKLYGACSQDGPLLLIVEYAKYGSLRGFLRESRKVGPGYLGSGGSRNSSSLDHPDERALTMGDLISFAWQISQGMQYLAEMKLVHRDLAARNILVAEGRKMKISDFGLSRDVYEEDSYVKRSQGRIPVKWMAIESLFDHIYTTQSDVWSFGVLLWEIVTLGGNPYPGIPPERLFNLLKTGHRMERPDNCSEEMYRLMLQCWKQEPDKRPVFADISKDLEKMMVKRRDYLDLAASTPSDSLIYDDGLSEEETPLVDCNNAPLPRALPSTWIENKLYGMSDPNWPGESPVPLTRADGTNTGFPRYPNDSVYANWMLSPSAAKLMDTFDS
# LYNa, sequence (P07948 whole entry): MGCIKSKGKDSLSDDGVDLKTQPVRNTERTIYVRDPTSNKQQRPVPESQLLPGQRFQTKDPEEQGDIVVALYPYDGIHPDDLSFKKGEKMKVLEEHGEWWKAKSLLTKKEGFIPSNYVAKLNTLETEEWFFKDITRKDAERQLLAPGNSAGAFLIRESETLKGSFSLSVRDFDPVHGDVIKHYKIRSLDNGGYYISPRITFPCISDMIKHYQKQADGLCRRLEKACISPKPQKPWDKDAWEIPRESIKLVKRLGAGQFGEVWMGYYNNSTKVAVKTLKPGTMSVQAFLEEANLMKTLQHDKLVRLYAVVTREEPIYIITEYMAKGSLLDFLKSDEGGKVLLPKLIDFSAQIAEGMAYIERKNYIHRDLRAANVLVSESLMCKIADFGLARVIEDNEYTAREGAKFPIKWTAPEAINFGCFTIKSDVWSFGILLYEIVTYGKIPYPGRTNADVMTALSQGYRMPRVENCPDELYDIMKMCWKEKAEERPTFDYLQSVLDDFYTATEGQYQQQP
# FYNa, sequence (P06241 whole entry): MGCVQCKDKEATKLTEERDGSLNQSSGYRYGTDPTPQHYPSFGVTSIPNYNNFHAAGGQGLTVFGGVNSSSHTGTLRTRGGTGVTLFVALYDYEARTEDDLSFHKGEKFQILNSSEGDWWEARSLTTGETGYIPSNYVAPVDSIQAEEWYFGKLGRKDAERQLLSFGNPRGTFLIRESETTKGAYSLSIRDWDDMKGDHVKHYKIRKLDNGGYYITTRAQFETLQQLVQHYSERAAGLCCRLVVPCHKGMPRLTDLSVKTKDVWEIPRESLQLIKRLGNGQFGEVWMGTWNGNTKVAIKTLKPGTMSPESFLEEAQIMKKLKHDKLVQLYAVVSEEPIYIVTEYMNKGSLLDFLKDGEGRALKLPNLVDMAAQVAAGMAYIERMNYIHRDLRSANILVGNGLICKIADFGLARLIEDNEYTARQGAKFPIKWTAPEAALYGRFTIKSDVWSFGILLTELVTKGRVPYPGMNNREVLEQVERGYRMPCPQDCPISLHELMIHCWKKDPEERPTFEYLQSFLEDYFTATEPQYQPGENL
# FGR, sequence (P09769 whole entry): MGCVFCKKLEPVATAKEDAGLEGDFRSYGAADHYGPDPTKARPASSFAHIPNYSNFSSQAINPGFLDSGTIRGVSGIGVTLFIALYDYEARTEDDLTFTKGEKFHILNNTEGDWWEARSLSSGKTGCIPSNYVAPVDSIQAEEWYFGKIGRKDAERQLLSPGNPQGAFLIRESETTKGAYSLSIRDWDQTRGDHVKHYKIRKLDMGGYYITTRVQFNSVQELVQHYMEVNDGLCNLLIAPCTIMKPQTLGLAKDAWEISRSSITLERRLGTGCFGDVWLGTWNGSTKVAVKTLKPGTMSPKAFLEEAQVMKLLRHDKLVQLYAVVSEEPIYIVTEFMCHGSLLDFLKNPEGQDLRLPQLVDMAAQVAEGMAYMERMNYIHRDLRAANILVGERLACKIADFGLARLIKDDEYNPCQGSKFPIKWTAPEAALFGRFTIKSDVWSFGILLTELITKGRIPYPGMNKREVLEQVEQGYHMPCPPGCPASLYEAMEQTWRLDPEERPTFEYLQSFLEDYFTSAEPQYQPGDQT
Structure (SMILES),inhibition at 0.5 µM [1] [%],inhibition at 0.5 µM [2] [%],inhibition at 0.5 µM [3] [%],inhibition at 0.5 µM [4] [%],inhibition at 0.5 µM [5] [%],inhibition at 0.5 µM [6] [%],inhibition at 0.5 µM [7] [%],inhibition at 0.5 µM [8] [%],inhibition at 0.5 µM [9] [%],inhibition at 0.5 µM [10] [%],inhibition at 0.5 µM [11] [%],inhibition at 0.5 µM [12] [%],inhibition at 0.5 µM [13] [%],inhibition at 0.5 µM [14] [%],inhibition at 0.5 µM [15] [%],GI50 [16] [nM],selectivity for SRC and its family members over other kinases [17],potency and selectivity in cancer cell lines compared with parent compound 506 [18]
"CNC1CCN(CCn2nc(-c3ccc(NC(=O)OC(C)(C)C)c(OC)c3)c3c(N)ncnc32)CC1 [Compound 5a, tert-butyl (4-(4-amino-1-(2-(4-(methylamino)piperidin-1-yl)ethyl)-1H-pyrazolo[3,4-d]pyrimidin-3-yl)-2-methoxyphenyl)carbamate]",29.2,98.5,46.3,101,99.4,105,97.6,1.7,2.8,107,102,13.6,-0.3,102,99.7,16.2,more selective than compound 506,retains the potency and selectivity characteristics of the parent compound 506
"COc1cc(-c2nn(CCN3CCC(NC(C)C)CC3)c3ncnc(N)c23)ccc1NC(=O)OC(C)(C)C [Compound 8, tert-butyl (4-(4-amino-1-(2-(4-(isopropylamino)piperidin-1-yl)ethyl)-1H-pyrazolo[3,4-d]pyrimidin-3-yl)-2-methoxyphenyl)carbamate]",24.2,99.5,58.2,100,100,98.7,94.9,-7.3,2.7,101,101,12.2,-2.3,97.3,102,12.5,more selective than compound 506,
"COc1cc(-c2nn(CCN3CCC(N(C)C)CC3)c3ncnc(N)c23)ccc1NC(=O)OC(C)(C)C [Compound 506, Tert-butyl (4-(4-amino-1-(2-(4-(dimethylamino)piperidin-1-yl)ethyl)-1H-pyrazolo[3,4-d]pyrimidin-3-yl)-2-methoxyphenyl)carbamate, reference compound]",,,46.1,100,100,101,96.7,2.9,4.4,104,101,13.5,3.8,101,99.7,,,
